Measurements taken from PMC7574619, “Engineering of NADPH Supply Boosts Photosynthesis-Driven Biotransformations” (ACS Catalysis, 2020).

Target: T1, YqjM (Bacillus subtilis, UniProt P54550)
T1 construct: gene namA; purified YqjM flavoenzyme
T1 sequence (P54550 2-338): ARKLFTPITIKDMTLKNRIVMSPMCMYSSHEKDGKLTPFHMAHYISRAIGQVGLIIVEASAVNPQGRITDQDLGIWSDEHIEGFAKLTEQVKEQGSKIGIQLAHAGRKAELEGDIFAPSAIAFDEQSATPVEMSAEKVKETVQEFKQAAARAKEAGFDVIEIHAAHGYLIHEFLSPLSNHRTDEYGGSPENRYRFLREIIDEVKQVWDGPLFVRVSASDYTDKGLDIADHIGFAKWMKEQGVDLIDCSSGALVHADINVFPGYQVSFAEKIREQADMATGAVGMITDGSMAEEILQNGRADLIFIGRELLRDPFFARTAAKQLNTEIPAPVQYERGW
Test: stopped-flow, flavin reduction at […] nm, anaerobic
Assay type: biochemical
Conditions: Tris-HCl 50 mM, pH 7.5, 25 °C; 25 μM YqjM; reductive half reaction

SMILES | Kd
NC(=O)C1=CN([C@@H]2O[C@H](COP(=O)(O)OP(=O)(O)OC[C@H]3O[C@@H](n4cnc5c(N)ncnc54)[C@H](O)[C@@H]3O)[C@@H](O)[C@H]2O)C=CC1 [NADH] | 140 ± 24.5 µM
NC(=O)C1=CN([C@@H]2O[C@H](COP(=O)(O)OP(=O)(O)OC[C@H]3O[C@@H](n4cnc5c(N)ncnc54)[C@H](OP(=O)(O)O)[C@@H]3O)[C@@H](O)[C@H]2O)C=CC1 [NADPH] | 39.8 ± 7.1 µM
